The subject of assay [1] is N1E-115 neuroblastoma cells differentiated to a neuronal phenotype. Kind of assay: Western blot detection of succinated proteins with anti-2SC antibody after KOH hydrolysis of the ester. In kind it is cell-based, mouse. To be noted: DMF for 24 hours, hydrolysis of the ester in the presence of KOH. As for the experimental part: (§1) N1E-115 cells (subclone N1E-115-1 neuroblastoma cells) were obtained from Sigma (08062511, St. Louis, MO). The cells were grown and expanded in non-differentiation medium (NDM): 90% DMEM (Gibco™, Grand Island, NY) with 25 mM glucose, no pyruvate, 25 mM HEPES, 4 mM glutamine and 10% fetal bovine serum (FBS, Atlanta Biologicals, Atlanta, GA). At 80% confluence, the cells were differentiated into neurons in the presence of 2% FBS and 1.25% dimethyl sulfoxide in DMEM for 5 days. In addition to the assessment of the neuronal phenotype by light microscopy, the detection of synaptophysin protein levels was used to confirm successful differentiation. During the final 6 or 24 hours of differentiation, the cells were treated with 10-100 µM DMF and harvested as described above for primary neurons, with the addition of phosphatase inhibitors to the DPBS washes and the RIPA buffer used for scraping to prevent dephosphorylation of CRMP-2. […] To ensure that the succinated proteins detected were solely of neuronal origin, N1E-115 neuroblastoma cells were differentiated to a neuronal phenotype (confirmed by increased synaptophysin content) and treated with DMF for 24 hours. […]
On the technique in general: In western blotting, separated proteins are transferred to a membrane and probed.

The next assay concerns heme oxygenase 1 (HO-1). The assay can be described thus: Western blot of HO-1 expression after DMF treatment. In kind it is cell-based. As for the experimental part:
as §1

The text below walks through data of patent US20260133203A1, “DETECTION OF FUMARATE-DERIVED MODIFICATION IN A TEST SAMPLE” (UNIVERSITY OF SOUTH CAROLINA, priority 2017, published 2026).

Structures can show the parent of a compound that is named as a salt.

Regarding `COC(=O)/C=C/C(=O)OC` [DMF, dimethyl fumarate], the “detection of succinated proteins using the anti-2SC antibody” value in assay [1] is recorded as “detection of a large number of succinated proteins”. Moreover, in the assay with heme oxygenase 1 (HO-1), the HO-1 expression entry was “significantly induced HO-1 expression”.
